According to PMC10214526, “Semisynthetic LC3 Probes for Autophagy Pathways Reveal a Noncanonical LC3 Interacting Region Motif Crucial for the Enzymatic Activity of Human ATG3” (ACS Central Science, 2023):

System: ATG3
Experiment: Reaction (cross-linking) of Ubl activity-based probes with recombinant ATG3 and variants
Assay type: biochemical, human
Conditions: probe 15 μM; ATG3 wt, C264A and ΔLIR 5 μM; SDS-PAGE (Figure S9)

Substance: GABARAP(ΔG116)–NHNH methyl-fumarate [compound 2]
- LIR dependence of ATG3 wild-type modification: dependent on LIRATG3
